Laboratory results published in patent US10253002B2, “Compounds and methods of treating infections” (Neoculi Pty Ltd., priority 2013, dated 2019).
Converted amounts (≈) assume the structure as drawn. Read-outs that look alike come from different tables or passages of the source.

Experiments:
MRSA = assay: Broth microdilution MIC, Example 7 (NCL812 and analogues); format: cell-based, Staphylococcus aureus; settings: Staphylococcus aureus, MRSA, read-out: MIC
Outline: (§1)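 Isolates were tested in duplicate, with a third run if replicates differed by more than one two-fold dilution; inoculum purity was checked on sheep blood agar.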

VRE = assay: as above; format: cell-based, Enterococcus spp.; settings: Enterococcus, VRE
Outline: as §1

SMILES: CC1(C)S[C@@H]2[C@H](NC(=O)[C@H](N)c3ccccc3)C(=O)N2[C@H]1C(=O)O [Ampicillin]
- MIC (MRSA; MRSA 741, Phase I, 2nd): 8 µg/mL (≈ 22.9 µM)
- MIC (MRSA; MRSA 741, Phase II, 1st): 4 µg/mL (≈ 11.4 µM)
- MIC (MRSA; MRSA 741, Phase II, 2nd): 4 µg/mL (≈ 11.4 µM)
- MIC (MRSA; MRSA 747, Phase I, 1st): > 128 µg/mL
- MIC (MRSA; MRSA 747, Phase I, 2nd): > 128 µg/mL
- MIC (MRSA; MRSA 747, Phase II, 1st): 64 µg/mL (≈ 183 µM)
- MIC (MRSA; MRSA 747, Phase II, 2nd): 64 µg/mL (≈ 183 µM)
- MIC (MRSA; MRSA 773, Phase I, 1st): 64 µg/mL (≈ 183 µM)
- MIC (MRSA; MRSA 773, Phase I, 2nd): 64 µg/mL (≈ 183 µM)
- MIC (MRSA; MRSA 773, Phase II, 1st): 64 µg/mL (≈ 183 µM)
- MIC (MRSA; MRSA 773, Phase II, 2nd): 64 µg/mL (≈ 183 µM)
- MIC (MRSA; MRSA 778, Phase I, 1st): > 128 µg/mL
- MIC (MRSA; MRSA 778, Phase I, 2nd): > 128 µg/mL
- MIC (MRSA; MRSA 786, Phase I, 1st): 32 µg/mL (≈ 91.6 µM)
- MIC (MRSA; MRSA 786, Phase I, 2nd): 32 µg/mL (≈ 91.6 µM)
- MIC (MRSA; MRSA 786, Phase II, 1st): 32 µg/mL (≈ 91.6 µM)
- MIC (MRSA; MRSA 786, Phase II, 2nd): 32 µg/mL (≈ 91.6 µM)
- MIC (MRSA; MRSA 787, Phase I, 1st): > 128 µg/mL
- MIC (MRSA; MRSA 787, Phase I, 2nd): > 128 µg/mL
- MIC (MRSA; MRSA 787, Phase II, 1st): 64 µg/mL (≈ 183 µM)
- MIC (MRSA; MRSA 787, Phase II, 2nd): 64 µg/mL (≈ 183 µM)
- MIC (MRSA; MRSA 815, Phase I, 1st): 64 µg/mL (≈ 183 µM)
- MIC (MRSA; MRSA 815, Phase I, 2nd): 64 µg/mL (≈ 183 µM)
- MIC (MRSA; MRSA 815, Phase II, 1st): 32 µg/mL (≈ 91.6 µM)
- MIC (MRSA; MRSA 815, Phase II, 2nd): 32 µg/mL (≈ 91.6 µM)
- MIC (MRSA; MRSA 823, Phase I, 1st): > 128 µg/mL
- MIC (MRSA; MRSA 823, Phase I, 2nd): > 128 µg/mL
- MIC (MRSA; MRSA 844, Phase II, 1st): 64 µg/mL (≈ 183 µM)
- MIC (MRSA; MRSA 844, Phase II, 2nd): 32 µg/mL (≈ 91.6 µM)
- MIC (VRE; 24 h, read-out: MIC (μg/ml) at 24 hours, VRE 1, isolate VRE 1, 24 hours, 1st and 2nd replicate rows): 0.5 µg/mL (≈ 1.43 µM)
- MIC (VRE; 24 h, read-out: MIC (μg/ml) at 24 hours, VRE 2, isolate VRE 2, 24 hours, 1st and 2nd replicate rows): 0.25 µg/mL (≈ 0.715 µM)
- MIC (VRE; VRE 002 [H12c], Phase I, 1st, read-out: MIC): 1 µg/mL (≈ 2.86 µM)
- MIC (VRE; VRE 002 [H12c], Phase I, 2nd, read-out: MIC): 1 µg/mL (≈ 2.86 µM)
- MIC (VRE; VRE 002 [H12c], Phase II, 1st, read-out: MIC): 0.25 µg/mL (≈ 0.715 µM)
- MIC (VRE; VRE 002 [H12c], Phase II, 2nd, read-out: MIC): 0.25 µg/mL (≈ 0.715 µM)
- MIC (VRE; VRE 003 [H14t], Phase I, 1st, read-out: MIC): 0.5 µg/mL (≈ 1.43 µM)
- MIC (VRE; VRE 003 [H14t], Phase I, 2nd, read-out: MIC): 0.5 µg/mL (≈ 1.43 µM)
- MIC (VRE; VRE 003 [H14t], Phase II, 1st, read-out: MIC): 0.25 µg/mL (≈ 0.715 µM)
- MIC (VRE; VRE 003 [H14t], Phase II, 2nd, read-out: MIC): 0.25 µg/mL (≈ 0.715 µM)
- MIC (VRE; VRE 004 [H16c], Phase I, 1st, read-out: MIC): 1 µg/mL (≈ 2.86 µM)
- MIC (VRE; VRE 004 [H16c], Phase I, 2nd, read-out: MIC): 1 µg/mL (≈ 2.86 µM)
- MIC (VRE; VRE 004 [H16c], Phase II, 1st, read-out: MIC): 0.25 µg/mL (≈ 0.715 µM)
- MIC (VRE; VRE 004 [H16c], Phase II, 2nd, read-out: MIC): 0.25 µg/mL (≈ 0.715 µM)
- MIC (VRE; VRE 005 [H17c], Phase I, 1st, read-out: MIC): 1 µg/mL (≈ 2.86 µM)
- MIC (VRE; VRE 005 [H17c], Phase I, 2nd, read-out: MIC): 1 µg/mL (≈ 2.86 µM)
- MIC (VRE; VRE 005 [H17c], Phase II, 1st, read-out: MIC): 0.25 µg/mL (≈ 0.715 µM)
- MIC (VRE; VRE 005 [H17c], Phase II, 2nd, read-out: MIC): 0.25 µg/mL (≈ 0.715 µM)
- MIC (VRE; VRE 006 [H19t], Phase I, 1st, read-out: MIC): 1 µg/mL (≈ 2.86 µM)
- MIC (VRE; VRE 006 [H19t], Phase I, 2nd, read-out: MIC): 1 µg/mL (≈ 2.86 µM)
- MIC (VRE; VRE 006 [H19t], Phase II, 1st, read-out: MIC): 0.25 µg/mL (≈ 0.715 µM)
- MIC (VRE; VRE 006 [H19t], Phase II, 2nd, read-out: MIC): 0.25 µg/mL (≈ 0.715 µM)
- MIC (VRE; VRE 007 [H23c], Phase I, 1st, read-out: MIC): 1 µg/mL (≈ 2.86 µM)
- MIC (VRE; VRE 007 [H23c], Phase I, 2nd, read-out: MIC): 1 µg/mL (≈ 2.86 µM)
- MIC (VRE; VRE 007 [H23c], Phase II, 1st, read-out: MIC): 0.25 µg/mL (≈ 0.715 µM)
- MIC (VRE; VRE 007 [H23c], Phase II, 2nd, read-out: MIC): 0.25 µg/mL (≈ 0.715 µM)
- MIC (VRE; VRE 008 [H16c(dc)], Phase I, 1st, read-out: MIC): 1 µg/mL (≈ 2.86 µM)
- MIC (VRE; VRE 008 [H16c(dc)], Phase I, 2nd, read-out: MIC): 1 µg/mL (≈ 2.86 µM)
- MIC (VRE; VRE 008 [H16c(dc)], Phase II, 1st, read-out: MIC): 1 µg/mL (≈ 2.86 µM)
- MIC (VRE; VRE 008 [H16c(dc)], Phase II, 2nd, read-out: MIC): 1 µg/mL (≈ 2.86 µM)
- MIC (VRE; VRE 009 [H25c], Phase I, 1st, read-out: MIC): 1 µg/mL (≈ 2.86 µM)
- MIC (VRE; VRE 009 [H25c], Phase I, 2nd, read-out: MIC): 1 µg/mL (≈ 2.86 µM)
- MIC (VRE; VRE 009 [H25c], Phase II, 1st, read-out: MIC): 1 µg/mL (≈ 2.86 µM)
- MIC (VRE; VRE 009 [H25c], Phase II, 2nd, read-out: MIC): 1 µg/mL (≈ 2.86 µM)
- MIC (VRE; VRE 010 [H26c(w)], Phase I, 1st, read-out: MIC): 2 µg/mL (≈ 5.72 µM)
- MIC (VRE; VRE 010 [H26c(w)], Phase I, 2nd, read-out: MIC): 2 µg/mL (≈ 5.72 µM)
- MIC (VRE; VRE 010 [H26c(w)], Phase II, 1st, read-out: MIC): 1 µg/mL (≈ 2.86 µM)
- MIC (VRE; VRE 010 [H26c(w)], Phase II, 2nd, read-out: MIC): 1 µg/mL (≈ 2.86 µM)
- MIC (VRE; VRE 011 [H26c(dc)], Phase I, 1st, read-out: MIC): 1 µg/mL (≈ 2.86 µM)
- MIC (VRE; VRE 011 [H26c(dc)], Phase I, 2nd, read-out: MIC): 1 µg/mL (≈ 2.86 µM)
- MIC (VRE; VRE 011 [H26c(dc)], Phase II, 1st, read-out: MIC): 0.5 µg/mL (≈ 1.43 µM)
- MIC (VRE; VRE 011 [H26c(dc)], Phase II, 2nd, read-out: MIC): 0.5 µg/mL (≈ 1.43 µM)
- MIC (VRE; VRE 012 [H35t], Phase I, 1st, read-out: MIC): 0.5 µg/mL (≈ 1.43 µM)
- MIC (VRE; VRE 012 [H35t], Phase I, 2nd, read-out: MIC): 0.5 µg/mL (≈ 1.43 µM)
- MIC (VRE; VRE 012 [H35t], Phase II, 1st, read-out: MIC): 0.25 µg/mL (≈ 0.715 µM)
- MIC (VRE; VRE 012 [H35t], Phase II, 2nd, read-out: MIC): 0.5 µg/mL (≈ 1.43 µM)
- MIC (VRE; VRE 013 [H37c(w)], Phase I, 1st, read-out: MIC): 2 µg/mL (≈ 5.72 µM)
- MIC (VRE; VRE 013 [H37c(w)], Phase I, 2nd, read-out: MIC): 2 µg/mL (≈ 5.72 µM)
- MIC (VRE; VRE 013 [H37c(w)], Phase II, 1st, read-out: MIC): 1 µg/mL (≈ 2.86 µM)
- MIC (VRE; VRE 013 [H37c(w)], Phase II, 2nd, read-out: MIC): 1 µg/mL (≈ 2.86 µM)
- MIC (VRE; VRE 014 [H37c(g)], Phase I, 1st, read-out: MIC): 1 µg/mL (≈ 2.86 µM)
- MIC (VRE; VRE 014 [H37c(g)], Phase I, 2nd, read-out: MIC): 1 µg/mL (≈ 2.86 µM)
- MIC (VRE; VRE 014 [H37c(g)], Phase II, 1st, read-out: MIC): 1 µg/mL (≈ 2.86 µM)
- MIC (VRE; VRE 014 [H37c(g)], Phase II, 2nd, read-out: MIC): 1 µg/mL (≈ 2.86 µM)
